Laboratory results reported in paper PMC8348110, “A Novel Peptide Derived from the Transmembrane Domain of Romo1 Is a Promising Candidate for Sepsis Treatment and Multidrug-Resistant Bacteria” (International Journal of Molecular Sciences, 2021).
≈ marks a conversion by molar mass, not a printed value. Residues, ends and D or L forms follow the SMILES beside them.

Key:
[1] = system: Pseudomonas aeruginosa ATCC 27853; format: cell-based; conditions: ATCC 27853, 1 h
Method: (§1) The minimum bactericidal concentration (MBC) was determined as previously described with minor modifications. Briefly, bacteria were cultured in the mid-log phase and diluted to 5 × 10^5 colony-forming unit (CFU)/mL in 10 mM sodium phosphate buffer (pH 7.4) with a 1% volume of TS broth. They were incubated for 1 h with various peptides which were two-fold diluted serially from 64 μg/mL to 0 μg/mL concentrations in a 96-well plate. The samples were inoculated TS agar plate and incubated overnight at 37 °C. The value of MBC was determined at the lowest concentrations at which no colonies were identified.
(§2) We used the CFU counting method to measure antibacterial activity, with all bacteria cultured to the mid-log phase in an appropriate broth medium. Bacterial CFUs were counted after overnight culture at 37 °C on TS or LB agar plates. The MBC value and antibacterial activity in blood components were determined as previously described. Mouse and human whole blood were collected and diluted with PBS (pH 7.4) to measure the ex vivo antibacterial activity of AMPR-22. For that test, AMPR-22 (10 μg) was added to each whole blood solution and incubated at 37 °C with shaking at 200 rpm. At each time point, it was incubated with bacteria (1 × 10^3 CFU) for 30 min. Each sample was inoculated on an LB agar plate, and CFU counting was performed. To measure the in vivo activity of AMPR-22, 1 × 10^8 CFU of bacteria were injected into BALB/c mice, and an hour later, 10 mg/kg of the test peptides were injected. Blood samples were collected by tail cut, serially diluted with PBS (pH 7.4), and inoculated on LB-agar plates, followed by CFU counting. To estimate the functional half-life of AMPR-22, 40 mg/kg of each tested peptide were injected into mice. Whole blood sampling was performed by cardiac puncture, and the plasma was isolated by centrifugation (2000× g, 15 min). The isolated plasma was incubated with bacteria (1 × 10^3 CFU) for an hour, and then the CFU counting method was performed.

[2] = system: Staphylococcus aureus ATCC 29213; format: cell-based; conditions: ATCC 29213, 1 h, pH 7.4
Method: as §1, §2

[3] = system: Methicillin-resistant S. aureus (MRSA) ATCC 33591; format: cell-based, Staphylococcus aureus; conditions: ATCC 33591, 1 h
Method: as §1, §2

[4] = system: Carbapenem-resistant P. aeruginosa (CRPA), clinical isolate; format: cell-based, Pseudomonas aeruginosa; conditions: 1 h
Excerpt: Acinetobacter baumannii (ATCC 19606), B. subtilis (ATCC 6633), E. aerogenes (ATCC 13048), E. coli (ATCC 25922), E. faecalis (ATCC 19433), E. faecium (ATCC 19434), K. pneumoniae (ATCC 13883), P. aeruginosa (ATCC 27853), S. aureus (ATCC 29213), S. sindenensis (ATCC 23963), and MRSA (ATCC 33591) were purchased from the American Type Culture Collection (ATCC; Gaithersburg, MD, USA). Streptococcus pneumoniae (NCCP 14585), vancomycin-resistant E. faecium (NCCP 11522), and vancomycin-resistant S. aureus (NCCP 15872) were purchased from the National Culture Collection for Pathogens (NCCP; Cheongju, Korea). The isolation and use of carbapenem-resistant bacterial strains from a patient were approved (2015AN0129) by the Institutional Review Board (IRB) of Korea University Hospital. CRPA, CRKP, and CRAB were clinically isolated in Korea University Hospital (Seoul, Korea). CRPA was confirmed to be resistant to piperacillin, piperacillin-tazobactam, ceftazidime, imipenem, meropenem, gentamicin, amikacin, and ciprofloxacin. CRAB was confirmed to be resistant to piperacillin, piperacillin-tazobactam, cefepime, ceftazidime, imipenem, meropenem, gentamicin, amikacin, and ciprofloxacin. CRKP was confirmed to be resistant to piperacillin-tazobactam, cefepime, ceftazidime, imipenem, gentamicin, and ciprofloxacin. All strains were stored at –80 °C in 50% glycerol and 50% Luria-Bertani (LB) or tryptic soy (TS) broth, grown on LB or TS plates, and aerated at 37 °C.
as §1, §2

Compound	MBC Value, P. aeruginosa [1]	MBC Value, S. aureus [2]	MBC Value, MRSA [3]	MBC Value, CRPA [4]
CC[C@H](C)[C@H](NC(=O)CNC(=O)[C@H](CCSC)NC(=O)CNC(=O)[C@@H](NC(=O)[C@H](C)NC(=O)[C@H](CCSC)NC(=O)[C@H](Cc1ccccc1)NC(=O)[C@@H](NC(=O)[C@H](Cc1ccccc1)NC(=O)[C@H](CCCCN)NC(=O)CNC(=O)CNC(=O)[C@H](CCCCN)NC(=O)[C@H](CCCCN)NC(=O)[C@H](CCSC)NC(=O)[C@H](CCSC)NC(=O)[C@H](CCCCN)NC(=O)[C@@H](N)CCCCN)[C@@H](C)O)[C@@H](C)CC)C(=O)N[C@@H](CCCNC(=N)N)C(=O)O [d68G] (H-KKMMKKGGKFTFMAIGMGIR-OH)	4 µg/mL (≈ 1.77 µM)	4 µg/mL (≈ 1.77 µM)	4 µg/mL (≈ 1.77 µM)	8 µg/mL (≈ 3.54 µM)
CC[C@H](C)[C@H](NC(=O)CNC(=O)[C@H](CCSC)NC(=O)CNC(=O)[C@@H](NC(=O)[C@H](C)NC(=O)[C@H](CCSC)NC(=O)[C@H](Cc1ccccc1)NC(=O)CNC(=O)[C@H](Cc1ccccc1)NC(=O)[C@H](CCCCN)NC(=O)CNC(=O)CNC(=O)[C@H](CCCCN)NC(=O)[C@H](CCCCN)NC(=O)[C@H](CCSC)NC(=O)[C@H](CCSC)NC(=O)[C@H](CCCCN)NC(=O)[C@@H](N)CCCCN)[C@@H](C)CC)C(=O)N[C@@H](CCCNC(=N)N)C(=O)O [d69T] (H-KKMMKKGGKFGFMAIGMGIR-OH)	4 µg/mL (≈ 1.8 µM)	2 µg/mL (≈ 0.902 µM)	1 µg/mL (≈ 0.451 µM)	4 µg/mL (≈ 1.8 µM)
CC[C@H](C)[C@H](NC(=O)CNC(=O)[C@H](CCSC)NC(=O)CNC(=O)[C@@H](NC(=O)[C@H](C)NC(=O)[C@H](Cc1ccccc1)NC(=O)[C@@H](NC(=O)CNC(=O)[C@H](Cc1ccccc1)NC(=O)[C@H](CCCCN)NC(=O)CNC(=O)CNC(=O)[C@H](CCCCN)NC(=O)[C@H](CCCCN)NC(=O)[C@H](CCSC)NC(=O)[C@H](CCSC)NC(=O)[C@H](CCCCN)NC(=O)[C@@H](N)CCCCN)[C@@H](C)O)[C@@H](C)CC)C(=O)N[C@@H](CCCNC(=N)N)C(=O)O [d71M] (H-KKMMKKGGKFGTFAIGMGIR-OH)	2 µg/mL	4 µg/mL	4 µg/mL	8 µg/mL
CC[C@H](C)[C@H](NC(=O)CNC(=O)[C@H](CCSC)NC(=O)CNC(=O)[C@@H](NC(=O)[C@H](CCSC)NC(=O)[C@H](Cc1ccccc1)NC(=O)[C@@H](NC(=O)CNC(=O)[C@H](Cc1ccccc1)NC(=O)[C@H](CCCCN)NC(=O)CNC(=O)CNC(=O)[C@H](CCCCN)NC(=O)[C@H](CCCCN)NC(=O)[C@H](CCSC)NC(=O)[C@H](CCSC)NC(=O)[C@H](CCCCN)NC(=O)[C@@H](N)CCCCN)[C@@H](C)O)[C@@H](C)CC)C(=O)N[C@@H](CCCNC(=N)N)C(=O)O [d72A] (H-KKMMKKGGKFGTFMIGMGIR-OH)	2 µg/mL (≈ 0.89 µM)	2 µg/mL (≈ 0.89 µM)	2 µg/mL (≈ 0.89 µM)	4 µg/mL (≈ 1.78 µM)
CC[C@H](C)[C@H](NC(=O)CNC(=O)[C@H](CCSC)NC(=O)[C@@H](NC(=O)[C@H](C)NC(=O)[C@H](CCSC)NC(=O)[C@H](Cc1ccccc1)NC(=O)[C@@H](NC(=O)CNC(=O)[C@H](Cc1ccccc1)NC(=O)[C@H](CCCCN)NC(=O)CNC(=O)CNC(=O)[C@H](CCCCN)NC(=O)[C@H](CCCCN)NC(=O)[C@H](CCSC)NC(=O)[C@H](CCSC)NC(=O)[C@H](CCCCN)NC(=O)[C@@H](N)CCCCN)[C@@H](C)O)[C@@H](C)CC)C(=O)N[C@@H](CCCNC(=N)N)C(=O)O [d74G] (H-KKMMKKGGKFGTFMAIMGIR-OH)	4 µg/mL (≈ 1.77 µM)	4 µg/mL (≈ 1.77 µM)	4 µg/mL (≈ 1.77 µM)	8 µg/mL (≈ 3.54 µM)
CC[C@H](C)[C@H](NC(=O)[C@H](C)NC(=O)[C@H](CCSC)NC(=O)[C@H](Cc1ccccc1)NC(=O)[C@@H](NC(=O)CNC(=O)[C@H](Cc1ccccc1)NC(=O)[C@H](CCCCN)NC(=O)CNC(=O)CNC(=O)[C@H](CCCCN)NC(=O)[C@H](CCCCN)NC(=O)[C@H](CCSC)NC(=O)[C@H](CCSC)NC(=O)[C@H](CCCCN)NC(=O)[C@@H](N)CCCCN)[C@@H](C)O)C(=O)NCC(=O)N[C@@H](CCSC)C(=O)N[C@H](C(=O)N[C@@H](CCCNC(=N)N)C(=O)O)[C@@H](C)CC [d76G] (H-KKMMKKGGKFGTFMAIGMIR-OH)	4 µg/mL (≈ 1.77 µM)	4 µg/mL (≈ 1.77 µM)	4 µg/mL (≈ 1.77 µM)	4 µg/mL (≈ 1.77 µM)
CC[C@H](C)[C@H](NC(=O)[C@H](C)NC(=O)[C@H](CCSC)NC(=O)[C@H](Cc1ccccc1)NC(=O)[C@@H](NC(=O)CNC(=O)[C@H](Cc1ccccc1)NC(=O)[C@H](CCCCN)NC(=O)CNC(=O)CNC(=O)[C@H](CCCCN)NC(=O)[C@H](CCCCN)NC(=O)[C@H](CCSC)NC(=O)[C@H](CCSC)NC(=O)[C@H](CCCCN)NC(=O)[C@@H](N)CCCCN)[C@@H](C)O)C(=O)NCC(=O)N[C@@H](CCSC)C(=O)NCC(=O)N[C@@H](CCCNC(=N)N)C(=O)O [d77I] (H-KKMMKKGGKFGTFMAIGMGR-OH)	4 µg/mL (≈ 1.81 µM)	8 µg/mL (≈ 3.63 µM)	4 µg/mL (≈ 1.81 µM)	8 µg/mL (≈ 3.63 µM)
CC[C@H](C)[C@H](NC(=O)CNC(=O)[C@H](CCSC)NC(=O)CNC(=O)[C@@H](NC(=O)[C@H](C)NC(=O)[C@H](CCSC)NC(=O)[C@H](Cc1ccccc1)NC(=O)[C@@H](NC(=O)CNC(=O)[C@H](Cc1ccccc1)NC(=O)[C@H](CCCCN)NC(=O)CNC(=O)CNC(=O)[C@H](CCCCN)NC(=O)[C@H](CCCCN)NC(=O)[C@H](CCSC)NC(=O)[C@H](CCSC)NC(=O)[C@H](CCCCN)NC(=O)[C@@H](N)CCCCN)[C@@H](C)O)[C@@H](C)CC)C(=O)O [d78R] (H-KKMMKKGGKFGTFMAIGMGI-OH)	4 µg/mL (≈ 1.85 µM)	16 µg/mL (≈ 7.4 µM)	4 µg/mL (≈ 1.85 µM)	16 µg/mL (≈ 7.4 µM)
